Data on one molecule can be found in paper PMC9481570, “A small molecule antagonist of SMN disrupts the interaction between SMN and RNAP II” (Nature Communications, 2022).

Values joined by “and” are separate entries in the source; they are usually repeats but may differ in a detail not shown here. Identical values can stand only once.

Assay in all cases: Affinity-purification and mass spectrometry (AP-MS) chemical proteomics, all proteins;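 on Difference: 200 µM free competitor with 20 µM biotin probe overnight in lysate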
Common to all, as to format: binding

Experiment [1] addresses T1, proteins displaced from immobilized biotin-Cmpd 1 pulldowns (U2OS cell lysate) (Homo sapiens, UniProt P01876).
T1 construct: endogenous in cells; host or cells: U2OS
Conditions: GN=IGHA1 (P01876).

Experiment [2] has as its target T2, proteins displaced from immobilized biotin-Cmpd 1 pulldowns (U2OS cell lysate) (Homo sapiens, UniProt P25789).
T2 construct: endogenous in cells; host or cells: U2OS
Conditions: GN=PSMA4 (P25789).

Experiment [3] has as its target T3, proteins displaced from immobilized biotin-Cmpd 1 pulldowns (U2OS cell lysate) (Homo sapiens, UniProt P27797).
T3 construct: endogenous in cells; host or cells: U2OS
Conditions: GN=CALR (P27797).

Experiment [4] deals with T4, proteins displaced from immobilized biotin-Cmpd 1 pulldowns (U2OS cell lysate) (Homo sapiens, UniProt P30048).
T4 construct: endogenous in cells; host or cells: U2OS
T4 sequence (P30048 62-256): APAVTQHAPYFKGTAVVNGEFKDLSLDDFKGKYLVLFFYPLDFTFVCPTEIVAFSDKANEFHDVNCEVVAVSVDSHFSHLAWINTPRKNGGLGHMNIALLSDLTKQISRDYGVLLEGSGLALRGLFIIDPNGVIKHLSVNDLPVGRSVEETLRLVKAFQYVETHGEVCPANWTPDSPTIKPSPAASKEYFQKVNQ
Conditions: GN=PRDX3 (P30048).

Experiment [5] deals with T5, proteins displaced from immobilized biotin-Cmpd 1 pulldowns (U2OS cell lysate) (Homo sapiens, UniProt P49368).
T5 construct: endogenous in cells; host or cells: U2OS
T5 sequence (P49368 whole entry): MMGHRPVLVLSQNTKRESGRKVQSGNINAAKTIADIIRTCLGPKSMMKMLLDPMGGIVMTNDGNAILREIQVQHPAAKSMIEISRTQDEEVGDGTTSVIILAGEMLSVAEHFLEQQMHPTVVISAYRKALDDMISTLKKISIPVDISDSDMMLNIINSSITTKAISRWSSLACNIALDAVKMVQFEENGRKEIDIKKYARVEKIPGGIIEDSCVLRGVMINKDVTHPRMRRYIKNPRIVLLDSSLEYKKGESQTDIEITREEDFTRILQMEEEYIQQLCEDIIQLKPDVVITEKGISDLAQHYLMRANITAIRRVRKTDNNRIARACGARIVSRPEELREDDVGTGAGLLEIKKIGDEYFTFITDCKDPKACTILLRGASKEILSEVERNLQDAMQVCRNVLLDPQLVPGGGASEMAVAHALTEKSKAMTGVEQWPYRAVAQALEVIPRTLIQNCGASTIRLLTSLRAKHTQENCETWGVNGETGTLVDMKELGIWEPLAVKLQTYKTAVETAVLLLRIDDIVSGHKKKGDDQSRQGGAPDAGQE
Conditions: GN=CCT3 (P49368).

Experiment [6] addresses T6, proteins displaced from immobilized biotin-Cmpd 1 pulldowns (U2OS cell lysate) (Homo sapiens, UniProt P62424).
T6 construct: endogenous in cells; host or cells: U2OS
Conditions: GN=RPL7A (P62424).

Experiment [7] has as its target T7, proteins displaced from immobilized biotin-Cmpd 1 pulldowns (U2OS cell lysate) (Homo sapiens, UniProt P62910).
T7 construct: endogenous in cells; host or cells: U2OS
Conditions: GN=RPL32 (P62910).

The target of experiment [8] is T8, proteins displaced from immobilized biotin-Cmpd 1 pulldowns (U2OS cell lysate) (Homo sapiens, UniProt Q6PK04).
T8 construct: endogenous in cells; host or cells: U2OS
T8 sequence (Q6PK04 whole entry): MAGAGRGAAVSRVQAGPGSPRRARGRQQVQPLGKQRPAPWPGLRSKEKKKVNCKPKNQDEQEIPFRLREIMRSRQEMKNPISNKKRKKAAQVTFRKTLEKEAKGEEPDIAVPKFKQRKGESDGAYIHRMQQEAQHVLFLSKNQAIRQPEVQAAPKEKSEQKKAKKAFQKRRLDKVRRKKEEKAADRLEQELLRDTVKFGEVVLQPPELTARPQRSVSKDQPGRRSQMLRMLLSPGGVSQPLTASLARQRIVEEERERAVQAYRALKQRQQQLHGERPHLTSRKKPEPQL
Conditions: GN=CCDC137 (Q6PK04).

In experiment [9] the target is T9, proteins displaced from immobilized biotin-Cmpd 1 pulldowns (U2OS cell lysate) (Homo sapiens, UniProt Q6ZVX7).
T9 construct: endogenous in cells; host or cells: U2OS
T9 sequence (Q6ZVX7 whole entry): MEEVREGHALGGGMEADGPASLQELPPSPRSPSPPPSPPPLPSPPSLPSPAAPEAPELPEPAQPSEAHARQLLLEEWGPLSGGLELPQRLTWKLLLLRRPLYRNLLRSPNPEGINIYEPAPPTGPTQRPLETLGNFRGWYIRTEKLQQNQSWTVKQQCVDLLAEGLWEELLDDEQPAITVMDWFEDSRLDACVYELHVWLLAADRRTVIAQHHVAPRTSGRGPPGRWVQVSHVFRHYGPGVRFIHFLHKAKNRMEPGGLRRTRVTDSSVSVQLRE
Conditions: GN=NCCRP1 (Q6ZVX7).

The target of experiment [10] is T10, proteins displaced from immobilized biotin-Cmpd 1 pulldowns (U2OS cell lysate) (Homo sapiens, UniProt Q9NQC3).
T10 construct: endogenous in cells; host or cells: U2OS
T10 sequence (Q9NQC3 whole entry): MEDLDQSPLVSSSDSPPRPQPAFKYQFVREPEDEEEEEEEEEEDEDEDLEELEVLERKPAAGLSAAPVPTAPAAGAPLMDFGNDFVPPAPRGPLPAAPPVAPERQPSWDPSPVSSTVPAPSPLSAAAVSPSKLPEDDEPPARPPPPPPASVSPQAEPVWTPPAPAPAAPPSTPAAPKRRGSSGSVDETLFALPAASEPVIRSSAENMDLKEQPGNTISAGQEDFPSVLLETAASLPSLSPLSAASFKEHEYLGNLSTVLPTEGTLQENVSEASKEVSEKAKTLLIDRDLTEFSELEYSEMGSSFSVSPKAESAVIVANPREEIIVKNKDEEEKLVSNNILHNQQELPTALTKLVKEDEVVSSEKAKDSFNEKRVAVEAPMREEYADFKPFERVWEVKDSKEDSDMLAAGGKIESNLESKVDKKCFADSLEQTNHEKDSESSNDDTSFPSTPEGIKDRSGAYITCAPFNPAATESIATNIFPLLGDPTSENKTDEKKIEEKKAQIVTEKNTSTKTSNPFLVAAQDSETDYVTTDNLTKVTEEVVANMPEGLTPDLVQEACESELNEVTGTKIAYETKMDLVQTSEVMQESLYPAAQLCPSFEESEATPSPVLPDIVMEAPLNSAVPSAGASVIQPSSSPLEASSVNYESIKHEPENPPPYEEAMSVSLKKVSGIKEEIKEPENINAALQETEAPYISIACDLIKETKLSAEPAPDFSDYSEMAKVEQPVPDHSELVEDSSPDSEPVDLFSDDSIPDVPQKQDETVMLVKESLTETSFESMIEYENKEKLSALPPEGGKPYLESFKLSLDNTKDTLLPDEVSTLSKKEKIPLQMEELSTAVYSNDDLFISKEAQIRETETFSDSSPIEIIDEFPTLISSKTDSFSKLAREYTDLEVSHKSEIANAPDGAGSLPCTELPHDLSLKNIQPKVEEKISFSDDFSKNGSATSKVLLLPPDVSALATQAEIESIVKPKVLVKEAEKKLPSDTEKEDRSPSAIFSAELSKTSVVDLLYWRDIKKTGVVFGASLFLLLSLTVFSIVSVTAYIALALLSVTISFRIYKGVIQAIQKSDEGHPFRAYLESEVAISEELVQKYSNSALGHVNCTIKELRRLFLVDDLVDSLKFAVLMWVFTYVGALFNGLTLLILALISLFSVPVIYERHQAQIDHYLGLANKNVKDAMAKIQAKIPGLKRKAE
Conditions: GN=RTN4 (Q9NQC3).

T2 sequence (P25789 whole entry): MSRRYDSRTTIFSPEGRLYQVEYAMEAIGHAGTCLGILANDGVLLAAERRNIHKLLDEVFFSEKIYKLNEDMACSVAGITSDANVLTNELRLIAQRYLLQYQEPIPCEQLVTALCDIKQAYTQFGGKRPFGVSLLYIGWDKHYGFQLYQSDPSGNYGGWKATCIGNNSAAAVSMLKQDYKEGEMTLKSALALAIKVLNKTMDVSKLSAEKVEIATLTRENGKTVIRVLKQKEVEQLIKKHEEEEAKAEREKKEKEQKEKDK
T1 sequence (P01876 whole entry): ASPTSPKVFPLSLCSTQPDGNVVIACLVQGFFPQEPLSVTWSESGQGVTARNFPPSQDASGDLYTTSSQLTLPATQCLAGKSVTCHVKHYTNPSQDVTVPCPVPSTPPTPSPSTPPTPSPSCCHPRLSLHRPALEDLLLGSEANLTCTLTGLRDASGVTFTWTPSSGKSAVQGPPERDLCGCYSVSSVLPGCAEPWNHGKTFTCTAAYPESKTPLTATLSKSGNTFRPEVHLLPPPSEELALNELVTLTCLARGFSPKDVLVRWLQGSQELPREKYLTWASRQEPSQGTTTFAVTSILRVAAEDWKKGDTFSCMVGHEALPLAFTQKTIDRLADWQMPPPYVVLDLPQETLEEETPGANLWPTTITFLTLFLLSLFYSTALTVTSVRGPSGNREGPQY
T3 sequence (P27797 18-417): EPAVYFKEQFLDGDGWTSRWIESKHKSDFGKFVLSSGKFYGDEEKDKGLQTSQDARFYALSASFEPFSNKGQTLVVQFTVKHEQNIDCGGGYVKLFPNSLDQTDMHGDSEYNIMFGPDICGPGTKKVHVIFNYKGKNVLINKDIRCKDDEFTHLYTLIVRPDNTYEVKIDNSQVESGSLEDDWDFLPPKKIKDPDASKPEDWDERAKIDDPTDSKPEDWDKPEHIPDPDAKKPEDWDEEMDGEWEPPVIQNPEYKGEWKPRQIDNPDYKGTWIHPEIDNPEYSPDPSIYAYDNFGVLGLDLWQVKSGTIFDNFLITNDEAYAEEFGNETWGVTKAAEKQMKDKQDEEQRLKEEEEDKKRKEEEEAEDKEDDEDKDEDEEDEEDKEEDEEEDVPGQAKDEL

Consider `Cn1c2c(c(=N)c3c1CCC3)CCC2` [Compound 1, 4-methyl-2,3,4,5,6,7-hexahydrodicyclopenta[b,e]pyridin-8(1H)-imine], for which the Difference in experiment [1] (Cmpd minus DMSO, -LOG(P-value) 0.808053) is -3.043; in [2] (Cmpd minus DMSO, -LOG(P-value) 1.07686) it was -2.957; in [3] (Cmpd minus DMSO, -LOG(P-value) 1.31392), 3.089; in experiment [4] (Cmpd minus DMSO, -LOG(P-value) 1.19354), -0.7441; in experiment [5] (Cmpd minus DMSO, -LOG(P-value) 0.937615) it was 0.5386; in [6] (Cmpd minus DMSO, -LOG(P-value) 0.865251), 0.2314. Moreover, the Difference in experiment [7] (Cmpd minus DMSO, -LOG(P-value) 0.742167) is listed as 3.21; in experiment [8] (Cmpd minus DMSO, -LOG(P-value) 1.1923), 2.593; in experiment [9] (Cmpd minus DMSO, -LOG(P-value) 1.30206) it was -3.138; in experiment [10] (Cmpd minus DMSO, -LOG(P-value) 0.85719), 2.734. Also, the “iBAQ Cmpd” value was 18.0352 and 17.6842 and 20.2605 in experiment [1] (replicates 1-3); 18.482 and 14.8891 and 15.1338 in experiment [2] (replicates 1-3); 19.5486 and 19.2952 and 16.8093 in experiment [3] (replicates 1-3); 16.0313 and 15.2476 and 15.6479 in [4] (replicates 1-3); 20.7218 and 21.2363 and 20.6211 in [5] (replicates 1-3); 25.9383 and 25.6872 and 25.6067 in [6] (replicates 1-3). The “iBAQ Cmpd” value in [7] (replicates 1-3) was 19.3082 and 19.1191 and 19.5272; in experiment [8] (replicates 1-3), 19.0065 and 18.1463 and 18.0423; in experiment [9] (replicates 1-3) it was 15.2988 and 15.7784 and 15.638; in experiment [10] (replicates 1-3), 19.1423 and 18.4673 and 18.3569.
